Experimental data from patent US8835440B2, “Cyclic pyrimidin-4-carboxamides as CCR2 receptor antagonists for treatment of inflammation, asthma and COPD” (Boehringer Ingelheim International GmbH, priority 2008, dated 2014).

Target: T1, CCR2 (Homo sapiens, UniProt P41597)
T1 construct: Membranes were prepared from THP-1 cells; endogenous in cells; host or cells: THP-1 cells (membrane preparation)
T1 sequence (P41597 1-360 isoform P41597-2): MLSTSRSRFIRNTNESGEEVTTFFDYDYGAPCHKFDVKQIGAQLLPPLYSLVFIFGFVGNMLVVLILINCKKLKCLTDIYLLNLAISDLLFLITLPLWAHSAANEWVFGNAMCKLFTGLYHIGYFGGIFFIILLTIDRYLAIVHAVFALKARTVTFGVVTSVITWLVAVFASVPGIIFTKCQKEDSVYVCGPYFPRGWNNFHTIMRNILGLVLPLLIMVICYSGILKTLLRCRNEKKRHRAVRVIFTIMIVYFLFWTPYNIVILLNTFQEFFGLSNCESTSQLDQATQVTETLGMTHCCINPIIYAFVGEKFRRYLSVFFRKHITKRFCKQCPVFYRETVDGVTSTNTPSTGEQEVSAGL
Assay: CCR2 receptor membrane binding assay ([125I]MCP-1, THP-1 cell membranes, SPA beads)
Settings: for remaining activity at 10 µM: read-out: CCR2 % ctrl @ 10 μM; for Ki: dissociation constant hKi, [125I]MCP-1 binding to THP-1 membranes
Protocol: The above exemplary substances have been tested for binding to CCR2 using a binding assay as outlined herein below:
THP-1 cells (human acute monocytic leukaemia cells) were cultured under standardized conditions at 37° C. and 5% CO2 in a humidified incubator. THP-1 cells were cultivated in RPMI 1640 medium (Gibco 21875) containing 1% MEM-NEAA (Gibso 11140) 2 mM L-glutamine, 1.5 g/L sodium bicarbonate, 4.5 g/L glucose, 10 mM HEPES and 1.0 mM sodium pyruvate, 90%; 10% fetal calf serum (FCS Gibco 10500-064).
Membranes were prepared from THP-1 cells. THP-1 cells were centrifuged at 300×g at 4° C. for 10 min. The cell pellet was resuspendet in Phosphate Buffer Saline (PBS, including 10 μM Pefabloc and a protease inhibitor mix ‘complete’, Boehringer Mannheim (1 tablet/50 ml)), to a concentration of […]. The membrane preparation was performed by disrupting the cells by nitrogen […] (at 50 bar, for 1 h) in a “Nitrogen Bombe” (Parr Instrument). Cell debris was removed by centrifugation (800×g at 4° C., 1 min). The supernatant was centrifuged at 80000×g, 4° C. for 30 min to sediment the cell membranes. Usually 50 mg of protein (Bradford assay) were yielded from 1×10E9 cells. The membranes were resuspendet in 25 mM HEPES, 25 mM MgCl2, 1 mM CaCl2, 10% Glycerine for storage in aliquots at −80° C. in 25 mM HEPES, 25 mM MgCl2, 1 mM CaCl2, 10% Glycerine and stored at −80° C.
Receptor Membrane Binding Assay:
Perkin Elmer NEX 332 Jod 125 MCP-1, Stock: 2200 Ci/mmol solved in 2000 μl assay buffer, stored at −20° C. THP-1 membrane were adjusted with 25 mM HEPES, pH 7.2; 5 mM MgCl2; 0.5 mM CaCl2; 0.2% BSA assay buffer to a concentration of […]. Amersham Biosciences PVT-WGA Beads (RPNQ0001) were adjusted with assay buffer to a concentration of 0.24 mg/30 μl. For preparation of the membrane-bead-suspension membranes and beads were incubated for 30 min at RT under rotation (60 rpm) with a ratio of 1:2. Test compounds dissolved in 100% DMSO to a concentration of 10 mM and are further diluted with 100% DMSO to 1 mM. All additional compound dilutions were obtained with assay buffer, final 1% DMSO. Compounds, membrane-bead-suspension and [125I]MCP-1 (ca. 25000 cpm/10 μl) were incubated. Bound radioactivity was determined by scintillation counter after 8 h. Determination of affinity of test compounds (dissociation constant hKi) is calculated by iterative fitting of experimental data using the “easy sys” program, which is based on law of mass action (Schittkowski K. (1994), Numerische Mathematik, Vol. 68, 129-142).

[1] = @ 10 μM test compound, THP-1 membranes

Structure (SMILES) | remaining activity at 10 µM [1] [%] | Ki [nM] | CCR2 % ctrl @ 10 μM (@ 10 μM test compound, THP-1 membranes, 10 µM) [% ctrl]
CNC(=O)[C@@H]1CCN(C2CCN(C(=O)c3ncnc(NCc4ccc(C(F)(F)F)c(Cl)c4)c3C)CC2)C1 [Example 77] | 27 | 650 | –
CNC(=O)[C@@H]1CCN(C2CCN(C(=O)c3ncnc(NCc4ccc(Cl)c(F)c4)c3C)CC2)C1 [Example 78] | 28 | 740 | –
Cc1nc(NC2CCCC(c3ccccc3)C2)c(C)c(C(=O)N2CCC(N3CCC(NS(C)(=O)=O)CC3)CC2)n1 (stereo not shown) [Example 89] | 29 | 770 | –
Cc1nc(NCCc2ccc(Cl)c(Cl)c2)c(C)c(C(=O)N2CCC(N3CCC(O)CC3)CC2)n1 [Example 91] | 23 | 236 | –
COC1CCN(C2CCN(C(=O)c3ncnc(NCC4CCN(c5ccccc5)CC4)c3C)CC2)CC1 [Example 96] | 21 | 939 | –
COC1CCN(C2CCN(C(=O)c3ncnc(NCC4CCCN(c5ccccc5)C4)c3C)CC2)CC1 (stereo not shown) [Example 97] | 17 | 665 | –
COC1CCN(C2CCN(C(=O)c3ncnc(NCc4ccc(C)c(Cl)c4)c3C)CC2)CC1 [Example 98] | 2 | 214 | –
Cc1c(NCCc2ccccc2)ncnc1C(=O)N1CCC(N2CCC(O)CC2)CC1 [Example 99] | 32 | 1830 | –
Cc1c(NCc2cccc(-c3ccccc3)c2)ncnc1C(=O)N1CCC(N2CCCC(O)C2)CC1 (stereo not shown) [Example 100] | 18 | 395 | –
Cc1c(NCc2ccc(-c3ccccc3)cc2)ncnc1C(=O)N1CCC(N2CCC(O)CC2)CC1 [Example 101] | 35 | 986 | –
Cc1c(NCc2cccc(-c3ccccc3)c2)ncnc1C(=O)N1CCC(N2CCC(O)CC2)CC1 [Example 102] | 15 | 224 | –
O=C(c1cc(NCc2ccc(-c3ccccc3)cc2)ncn1)N1CCC(N2CCCC(O)C2)CC1 (stereo not shown) [Example 103] | 30 | 1610 | –
Cc1ccc(CNc2ncnc(C(=O)N3CCC(N4CCCCC4)CC3)c2C)cc1F [Example 104] | – | 617 | 31
COc1ccc(CCNc2ncnc(C(=O)N3CCC(N4CCC(O)CC4)CC3)c2C)cc1Cl [Example 105] | 31 | 687 | –
Cc1c(NCCc2ccc(C(C)C)cc2)ncnc1C(=O)N1CCC(N2CCC(O)CC2)CC1 [Example 106] | 13 | 405 | –
Cc1c(NCc2ccc(Cl)c(Cl)c2)ncnc1C(=O)N1CCC(N2CCOCC2)CC1 [Example 107] | 12 | 232 | –
Cc1c(NCC2CCCCC2)ncnc1C(=O)N1CCC(N2CCC(O)CC2)CC1 [Example 108] | 20 | 627 | –
Cc1c(NCc2ccc(Cl)c(Cl)c2)ncnc1C(=O)N1CCC(N2CCC(O)CC2)CC1 [Example 109] | 11 | 213 | –
Cc1c(NCc2ccc(Cl)cc2)ncnc1C(=O)N1CCC(N2CCC(O)CC2)CC1 [Example 110] | 28 | 527 | –
Cc1c(NCc2ccc(F)c(Cl)c2)ncnc1C(=O)N1CCC(N2CCC(O)CC2)CC1 [Example 111] | 27 | 464 | –
Cc1c(NCCc2ccc(C(C)(C)C)cc2)ncnc1C(=O)N1CCC(N2CCC(O)CC2)CC1 [Example 112] | 21 | 378 | –

Other lines, results leading:

remaining activity at 10 µM [1] [%] | Ki [nM] | CCR2 % ctrl @ 10 μM (@ 10 μM test compound, THP-1 membranes, 10 µM) [% ctrl] | Structure (SMILES)
7 | 63 | – | Cc1c(NCc2ccc(C(C)(C)C)cc2)ncnc1C(=O)N1CCC(N2CCC(NS(C)(=O)=O)CC2)CC1 [Example 69]
6 | 80 | – | Cc1c(NCCc2ccc(OC(F)(F)F)cc2)ncnc1C(=O)N1CCC(N2CCC(NS(C)(=O)=O)CC2)CC1 [Example 70]
12 | 117 | – | Cc1c(NCC2COc3ccccc3C2)ncnc1C(=O)N1CCC(N2CCC(NS(C)(=O)=O)CC2)CC1 (stereo not shown) [Example 71]
7 | 81 | – | Cc1c(NCc2ccc(Cl)c(Cl)c2)ncnc1C(=O)N1CCC(N2CCC(NS(C)(=O)=O)CC2)CC1 [Example 72]
2 | 38 | – | Cc1c(NCC2Cc3ccccc3C2)ncnc1C(=O)N1CCC(N2CCC(NS(C)(=O)=O)CC2)CC1 [Example 73]
2 | 71 | – | Cc1c(NCC2CCN(c3ccccc3)C2)ncnc1C(=O)N1CCC(N2CCC(NS(C)(=O)=O)CC2)CC1 (stereo not shown) [Example 74]
7 | 67 | – | Cc1c(NCc2ccc(C(F)(F)F)c(Cl)c2)ncnc1C(=O)N1CCC(N2CCC(NS(C)(=O)=O)CC2)CC1 [Example 75]
12 | 132 | – | Cc1c(NCc2ccc(Cl)c(F)c2)ncnc1C(=O)N1CCC(N2CCC(NS(C)(=O)=O)CC2)CC1 [Example 76]
10 | 89 | – | Cc1nc(NCC2COc3ccccc3C2)c(C)c(C(=O)N2CCC(N3CCC(N(C)S(C)(=O)=O)CC3)CC2)n1 (stereo not shown) [Example 79]
7 | 53 | – | Cc1nc(NCc2ccc(Cl)c(F)c2)c(C)c(C(=O)N2CCC(N3CCC(N(C)S(C)(=O)=O)CC3)CC2)n1 [Example 80]
8 | 52 | – | Cc1nc(NCc2ccc(C(F)(F)F)c(Cl)c2)c(C)c(C(=O)N2CCC(N3CCC(N(C)S(C)(=O)=O)CC3)CC2)n1 [Example 81]
4 | 43 | – | Cc1nc(NCc2ccc(Cl)c(Cl)c2)c(C)c(C(=O)N2CCC(N3CCC(N(C)S(C)(=O)=O)CC3)CC2)n1 [Example 82]
3 | 43 | – | Cc1nc(NCc2ccc(C(C)(C)C)cc2)c(C)c(C(=O)N2CCC(N3CCC(N(C)S(C)(=O)=O)CC3)CC2)n1 [Example 83]
4 | 69 | – | Cc1nc(NCC2CCN(c3ccccc3)C2)c(C)c(C(=O)N2CCC(N3CCC(N(C)S(C)(=O)=O)CC3)CC2)n1 (stereo not shown) [Example 84]
13 | 55 | – | Cc1nc(NC[C@@H]2CCN(c3ccccc3)C2)c(C)c(C(=O)N2CCC(N3CCC(N(C)S(C)(=O)=O)CC3)CC2)n1 [Example 85]
3 | 39 | – | Cc1nc(NCC2Cc3ccccc3C2)c(C)c(C(=O)N2CCC(N3CCC(N(C)S(C)(=O)=O)CC3)CC2)n1 [Example 86]
9 | 78 | – | Cc1nc(NCC2CCCN(c3ccccc3)C2)c(C)c(C(=O)N2CCC(N3CCC(N(C)S(C)(=O)=O)CC3)CC2)n1 (stereo not shown) [Example 87]
6 | 58 | – | Cc1nc(NCc2ccc(Cl)c(Cl)c2)c(C)c(C(=O)N2CCC(N3CCC(NS(C)(=O)=O)CC3)CC2)n1 [Example 88]
10 | 127 | – | Cc1nc(NCC2COc3ccccc3C2)c(C)c(C(=O)N2CCC(N3CCC(NS(C)(=O)=O)CC3)CC2)n1 (stereo not shown) [Example 90]
14 | 175 | – | Cc1nc(NCc2ccc(Cl)c(Cl)c2)c(C)c(C(=O)N2CCC(N3CCC(O)CC3)CC2)n1 [Example 92]
6 | 123 | – | CNC(=O)C1CCN(C2CCN(C(=O)c3ncnc(NCC4CCN(c5ccccc5)C4)c3C)CC2)CC1 (stereo not shown) [Example 93]
8 | 211 | – | COC1CCN(C2CCN(C(=O)c3ncnc(NCc4ccc(C(C)C)cc4)c3C)CC2)CC1 [Example 94]
2 | 170 | – | COC1CCN(C2CCN(C(=O)c3ncnc(NCc4ccc(Cl)c(F)c4)c3C)CC2)CC1 [Example 95]
